In data set [1] the test system is N. gonorrhoeae H041. Kind of data set: minimum inhibitory concentration by agar dilution. The format is cell-based, Neisseria gonorrhoeae. On the technique in general: Agar dilution tests growth on a series of plates holding different concentrations.
In data set [2] the test system is tPBP2^H041. Kind of data set: gel-based competition assay with Bocillin-FL, second-order acylation rate. It is filed as biochemical, Neisseria gonorrhoeae.
The conditions of data set [3]: whole molecule; cited from earlier work.
The subject of data set [4] is tPBP2^H041. Kind of data set: time-dependent gel-based assay, second-order acylation by Bocillin-FL. The format is biochemical, Neisseria gonorrhoeae. Particulars: time-course, pH 8.0, room temperature.
Data set [5] has as its system tPBP2^H041-K361E. Briefly: time-dependent gel-based assay, acylation of K361E mutant by Bocillin-FL. It is filed as biochemical, Neisseria gonorrhoeae.
Data set [6] deals with tPBP2^H041-K361E. Kind of data set: gel-based competition assay with Bocillin-FL against K361E mutant. It is filed as biochemical, Neisseria gonorrhoeae. Particulars: for reduction in acylation rate against K361E mutant: K361E versus native tPBP2^H041; for Fractional Activity: fractional acylation rate of K361E compared to native tPBP2^H041; for K361E k2/Ks: tPBP2^H041-K361E mutant, competition with Bocillin-FL.

Data set [7] has as its system H041. Particulars: cited from earlier work.
The conditions of data set [8]: cited from earlier work.
The test system of data set [9] is wild-type PBP2 (tPBP2^WT). The conditions noted are these: cited from earlier work.
Data set [10] deals with tPBP2^H041. The conditions noted are these: cited from earlier work.
Data set [11] concerns FA19 with mosaic penA gene from H041 (penA41). The conditions noted are these: allelic exchange; cited from earlier work.
Data set [12] relates to (non-mosaic) PBP2. The conditions noted are these: membrane preparations; cited from earlier work.
Data set [13] has as its system N. gonorrhoeae strain H041.
[14] abbreviates: Neisseria gonorrhoeae, H041, 24 h.

≈ marks a conversion by molar mass, not a printed value. Read-outs that look alike come from different tables or passages of the source. Bounds are passed on as bounds.

Consider `NC(=O)c1cc[n+](CC2=C(C(=O)O)N3C(=O)[C@@H](NC(=O)[C@@H](c4ccccc4)S(=O)(=O)[O-])[C@H]3SC2)cc1` [cefsulodin], for which the MIC in [1] (setting [14]) is not below 32 µg/mL.
As for `Cc1cc(O)c(C(=O)N[C@@H](C(=O)N[C@@H]2C(=O)N3C(C(=O)O)=C(CSc4nnnn4C)CS[C@H]23)c2ccc(O)cc2)cn1` [cefpiramide], the “k2/Ks lower than cefoperazone” value in data set [2] is given as 100 fold.
For `CCO/N=C(\C(=O)N[C@@H]1C(=O)N2C(C(=O)[O-])=C(Sc3nc(-c4cc[n+](C)cc4)cs3)CS[C@H]12)c1nsc(N)n1` [ceftaroline], the logD7.4 in data set [3] is 1.03.
As for `Cc1cc(C)n2c1C=C1C=CC(CCC(=O)Nc3ccc(OCC(=O)N[C@@H]4C(=O)N5[C@@H]4SC(C)(C)[C@@H]5C(=O)[O-])cc3)=[N+]1[B-]2(F)F.[Na+]` [Bocillin-FL], the “second-order acylation rate k2/Ks of Bocillin-FL” value in data set [4] amounted to 275 ± 9 M⁻¹ s⁻¹. The “decrease in Bocillin-FL acylation rate against K361E” value in [5] (compared to the native enzyme) was determined as 5 fold. For the same molecule, in data set [5] (tPBP2^H041-K361E mutant, time-course), the “second-order acylation rate of Bocillin-FL against K361E” value was 57 ± 1 M⁻¹ s⁻¹.
`C=CC1=C(C(=O)O)N2C(=O)[C@@H](NC(=O)/C(=N\O)c3csc(N)n3)[C@H]2SC1` [cefdinir]: 2 µg/mL (≈ 5.06 µM) was the least that counted as inhibitory in [1] (setting [14]) (MIC).
`CO/N=C(\C(=O)N[C@@H]1C(=O)N2C(C(=O)O)=C(CSc3nc(=O)c(=O)[nH]n3C)CS[C@H]12)c1csc(N)n1` [ceftriaxone]: in data set [1] (setting [14]), the minimal inhibitory concentration (MIC) turned out to be 2 µg/mL (≈ 3.61 µM). Also, in [6], the “reduction in acylation rate against K361E mutant” value was 6 fold, the “Fractional Activity” value worked out at 0.17 and the “K361E k2/Ks” value worked out at 290 ± 70 M⁻¹ s⁻¹. The “increase in MIC compared to strain FA19” value in data set [7] (H041 versus FA19) is on record as 3,000 fold. Also, in [7] (strain H041), the minimum inhibitory concentration (MIC) is 2 µg/mL (≈ 3.61 µM). Also, the route of excretion entry in [8] is “primarily renal”. Besides, the “k3 (deacylation rate) of acylated complex” value in data set [9] is 2.8e-06 s⁻¹. The “k3 (deacylation rate) of acylated complex” value in data set [10] was 8.1e-05 s⁻¹. Moreover, the “increase in MIC on replacing wild-type penA in FA19 with penA41” value in [11] is 570 fold.
The molecule `CC(=O)OCC1=C(C(=O)O)N2C(=O)[C@@H](NC(=O)Cc3cccs3)[C@H]2SC1` [cephalothin] yielded a minimum inhibitory concentration (MIC) in data set [1] (setting [14]) not below 32 µg/mL.
In the case of `CCN1CCN(C(=O)N[C@@H](C(=O)N[C@@H]2C(=O)N3C(C(=O)O)=C(CSc4nnnn4C)CS[C@H]23)c2ccc(O)cc2)C(=O)C1=O` [cefoperazone], the minimal inhibitory concentration (MIC) in data set [1] (setting [14]) is 1 µg/mL (≈ 1.55 µM). For the same molecule, in data set [6], the “reduction in acylation rate against K361E mutant” value is 32 fold, the “Fractional Activity” value amounted to 0.03 and the “K361E k2/Ks” value amounted to 370 ± 60 M⁻¹ s⁻¹. In [8], the route of excretion result is “primarily biliary”. Besides, the “concentration at which bound to PBP2” value in data set [12] is recorded as “less than 10^−3 μg/mL”. The same molecule had a culture negativity in [13] (120 mg/kg TID one day, intraperitoneal, by day 3 post-treatment, n = 9) of 100%. Moreover, the “acylation rate relative to ceftriaxone (faster)” value in data set [2] came out at 7 fold.
The molecule `CC1=C(C(=O)O)N2C(=O)[C@@H](NC(=O)[C@H](N)c3ccccc3)[C@H]2SC1` [cephalexin] had a minimal inhibitory concentration (MIC) in data set [1] (setting [14]) not below 32 µg/mL.
`CO[C@@]1(NC(=O)Cc2cccs2)C(=O)N2C(C(=O)O)=C(COC(N)=O)CS[C@@H]21` [cefoxitin]: the minimum inhibitory concentration (MIC) in data set [1] (24 hr) was 3 µg/mL (≈ 7.02 µM); in [1] (setting [14]) it was 4 µg/mL (≈ 9.36 µM).
As to `N[C@@H](C(=O)N[C@@H]1C(=O)N2C(C(=O)O)=C(Cl)CS[C@H]12)c1ccccc1` [cefaclor], in data set [1] (setting [14]), the minimum inhibitory concentration (MIC) was not below 32 µg/mL.
Turning to `CNC(C)C1CCC(N)C(OC2C(N)CC(N)C(OC3OCC(C)(O)C(NC)C3O)C2O)O1` (stereo not shown) [gentamicin], the culture negativity in data set [13] (48 mg/kg once a day for 5 days (5QD), by day 4 after initiation of treatment, n = 8) is listed as 100%. Further, the mean time-to-clearance in [13] (48 mg/kg once a day for 5 days (5QD), n = 8) was 3.1 days.
For the molecule `CC(C)(O/N=C(\C(=O)N[C@@H]1C(=O)N2C(C(=O)[O-])=C(C[n+]3ccccc3)CS[C@H]12)c1csc(N)n1)C(=O)O` [ceftazidime], the minimal inhibitory concentration (MIC) in data set [1] (setting [14]) is not below 32 µg/mL. In addition, in data set [6], the “Fractional Activity” value stood at 0.70 and the “K361E k2/Ks” value was 560 ± 180 M⁻¹ s⁻¹.
In the case of `CO/N=C(\C(=O)N[C@@H]1C(=O)N2C(C(=O)[O-])=C(C[N+]3(C)CCCC3)CS[C@H]12)c1csc(N)n1` [cefepime], in [6], the “Fractional Activity” value worked out at 0.64 and the “K361E k2/Ks” value worked out at 410 ± 130 M⁻¹ s⁻¹.

The term MIC denotes the least concentration at which growth counts as inhibited.

The record behind these values is paper PMC9847585 (ACS infectious diseases, 2021).
